Values of other authors in patent US11791016B2, “Methods and systems for computer-generated predictive application of neuroimaging and gene expression mapping data” (NEUMORA THERAPEUTICS, INC., priority 2017, dated 2023).

Assays:
[1] = target: 5HT6 receptors (Homo sapiens, UniProt P50406)
[2] = target: muscarinic M3 (CHRM3) receptor (Homo sapiens, UniProt P20309)
[3] = target: T1, histamine H3 receptor (Homo sapiens, UniProt Q9Y5N1); conditions: patients with schizophrenia
T1 construct: host or cells: patients with schizophrenia, in vivo (Egan et al. 2013)
T1 sequence (Q9Y5N1 whole entry): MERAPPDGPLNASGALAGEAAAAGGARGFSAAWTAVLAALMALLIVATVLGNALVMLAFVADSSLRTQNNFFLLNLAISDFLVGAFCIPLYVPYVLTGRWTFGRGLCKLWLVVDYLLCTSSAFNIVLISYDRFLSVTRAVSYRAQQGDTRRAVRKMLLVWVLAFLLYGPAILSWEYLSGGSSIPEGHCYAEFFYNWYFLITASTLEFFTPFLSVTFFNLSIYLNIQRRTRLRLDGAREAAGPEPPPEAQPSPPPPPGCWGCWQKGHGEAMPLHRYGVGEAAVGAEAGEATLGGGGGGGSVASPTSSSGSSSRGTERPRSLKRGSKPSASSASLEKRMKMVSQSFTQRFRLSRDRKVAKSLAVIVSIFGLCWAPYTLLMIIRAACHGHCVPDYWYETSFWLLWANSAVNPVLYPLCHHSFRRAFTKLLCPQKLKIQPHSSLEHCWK

[4] = target: 5-HT2A serotonin receptor (Homo sapiens, UniProt P28223); conditions: healthy human subjects
Chain of 5-HT2A serotonin receptor (P28223 whole entry): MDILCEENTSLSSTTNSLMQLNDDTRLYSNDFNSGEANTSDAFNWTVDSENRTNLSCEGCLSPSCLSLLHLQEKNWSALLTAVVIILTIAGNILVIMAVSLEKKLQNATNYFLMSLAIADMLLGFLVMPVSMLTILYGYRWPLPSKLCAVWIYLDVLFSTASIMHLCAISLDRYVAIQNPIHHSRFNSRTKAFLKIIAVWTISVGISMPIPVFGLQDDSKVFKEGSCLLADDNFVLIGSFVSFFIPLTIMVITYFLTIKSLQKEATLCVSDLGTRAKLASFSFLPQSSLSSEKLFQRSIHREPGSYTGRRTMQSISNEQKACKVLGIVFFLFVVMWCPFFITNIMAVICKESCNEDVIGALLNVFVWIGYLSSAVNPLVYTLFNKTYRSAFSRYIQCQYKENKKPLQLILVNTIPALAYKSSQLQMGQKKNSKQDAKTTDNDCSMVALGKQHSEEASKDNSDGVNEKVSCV

Chain of muscarinic M3 (CHRM3) receptor (P20309 whole entry, species assumed): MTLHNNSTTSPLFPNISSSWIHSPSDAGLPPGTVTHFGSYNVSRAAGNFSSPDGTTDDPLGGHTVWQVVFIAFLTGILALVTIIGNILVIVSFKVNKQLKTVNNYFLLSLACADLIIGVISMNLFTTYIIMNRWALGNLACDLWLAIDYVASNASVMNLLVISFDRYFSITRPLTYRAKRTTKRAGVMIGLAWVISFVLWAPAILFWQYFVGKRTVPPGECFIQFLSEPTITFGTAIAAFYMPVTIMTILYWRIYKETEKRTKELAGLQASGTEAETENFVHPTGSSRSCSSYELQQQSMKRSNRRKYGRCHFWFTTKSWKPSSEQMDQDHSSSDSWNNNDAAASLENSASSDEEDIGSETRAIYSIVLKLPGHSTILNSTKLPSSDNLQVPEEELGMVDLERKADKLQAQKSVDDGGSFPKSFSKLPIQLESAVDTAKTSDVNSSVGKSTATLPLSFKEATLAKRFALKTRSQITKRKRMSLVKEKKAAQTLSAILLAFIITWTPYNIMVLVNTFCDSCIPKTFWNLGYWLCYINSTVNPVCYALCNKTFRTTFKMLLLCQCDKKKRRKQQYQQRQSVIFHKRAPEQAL
Chain of 5HT6 receptors (P50406 whole entry): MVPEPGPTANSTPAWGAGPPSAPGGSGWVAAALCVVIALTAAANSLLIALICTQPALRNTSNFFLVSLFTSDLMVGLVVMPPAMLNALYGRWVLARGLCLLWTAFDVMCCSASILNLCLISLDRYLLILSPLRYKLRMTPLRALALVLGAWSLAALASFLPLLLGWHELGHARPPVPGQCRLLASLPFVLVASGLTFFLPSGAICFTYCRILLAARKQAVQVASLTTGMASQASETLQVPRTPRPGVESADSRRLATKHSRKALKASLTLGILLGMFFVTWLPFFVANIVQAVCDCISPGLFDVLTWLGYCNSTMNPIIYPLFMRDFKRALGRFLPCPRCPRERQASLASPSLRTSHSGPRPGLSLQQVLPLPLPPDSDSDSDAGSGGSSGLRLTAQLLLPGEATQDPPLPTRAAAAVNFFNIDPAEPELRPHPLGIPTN

## O=C1Nc2ccc(Cl)cc2[C@@](C#CC2CC2)(C(F)(F)F)O1 [efavirenz]
[1]
  mode of action at 5HT6 receptors: inverse agonist activity
[2]
  mode of action at muscarinic M3 (CHRM3) receptor: antagonist activity

## Cc1nc2cccc(C(F)(F)F)c2c(=O)n1-c1ccc(OCCCN2CCCC2)cc1 [MK-0249]
[3]
  improvement of cognitive deficits: failed to improve cognitive deficits

## CCN(CC)C(=O)[C@@H]1C=C2c3cccc4[nH]cc(c34)C[C@H]2N(C)C1 [LSD, lysergic acid diethylamide]
[4]; acute administration, fMRI-derived cortical map
  change in mean functional connectivity (Global Brain Connectivity, GBC): large increase in occipital visual cortex

## O=C(c1ccc(F)cc1)C1CCN(CCn2c(=O)[nH]c3ccccc3c2=O)CC1 [ketanserin]
[4]; pre-administration before LSD
  effect on LSD-induced neural change (GBC): blocked
  effect on behavioral effects of LSD: blocked
